Reference: patent publication US10538487B2, “Sulfonylureas and related compounds and use of same” (priority 2015, dated 2020)
Like-named read-outs stand apart in the source and are kept apart here.

What was measured:
[1] = target: NLRP3 inflammasome (Homo sapiens, UniProt Q96P20); experiment: Inhibition of IL-1β release, NLRP3 inflammasome activation assay in HMDM; format: cell-based
Method in brief: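 Primary human monocyte-derived macrophages from CD14+ buffy-coat monocytes, seeded at 1×10^5/ml. Compound added in serum-free medium 30 min before NLRP3 stimulation (ATP, nigericin, LeuLeu-OMe or MSU). Cytokine in supernatants measured by ELISA or AlphaLISA; cell death by LDH release relative to full lysis.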

[2] = target: NLRP3 inflammasome (Mus musculus, UniProt Q8R4B8); experiment: Inhibition of IL-1β release, NLRP3 inflammasome activation assay in BMDM; format: cell-based
Sequence of NLRP3 inflammasome (Mus musculus, UniProt Q8R4B8) (Q8R4B8 whole entry): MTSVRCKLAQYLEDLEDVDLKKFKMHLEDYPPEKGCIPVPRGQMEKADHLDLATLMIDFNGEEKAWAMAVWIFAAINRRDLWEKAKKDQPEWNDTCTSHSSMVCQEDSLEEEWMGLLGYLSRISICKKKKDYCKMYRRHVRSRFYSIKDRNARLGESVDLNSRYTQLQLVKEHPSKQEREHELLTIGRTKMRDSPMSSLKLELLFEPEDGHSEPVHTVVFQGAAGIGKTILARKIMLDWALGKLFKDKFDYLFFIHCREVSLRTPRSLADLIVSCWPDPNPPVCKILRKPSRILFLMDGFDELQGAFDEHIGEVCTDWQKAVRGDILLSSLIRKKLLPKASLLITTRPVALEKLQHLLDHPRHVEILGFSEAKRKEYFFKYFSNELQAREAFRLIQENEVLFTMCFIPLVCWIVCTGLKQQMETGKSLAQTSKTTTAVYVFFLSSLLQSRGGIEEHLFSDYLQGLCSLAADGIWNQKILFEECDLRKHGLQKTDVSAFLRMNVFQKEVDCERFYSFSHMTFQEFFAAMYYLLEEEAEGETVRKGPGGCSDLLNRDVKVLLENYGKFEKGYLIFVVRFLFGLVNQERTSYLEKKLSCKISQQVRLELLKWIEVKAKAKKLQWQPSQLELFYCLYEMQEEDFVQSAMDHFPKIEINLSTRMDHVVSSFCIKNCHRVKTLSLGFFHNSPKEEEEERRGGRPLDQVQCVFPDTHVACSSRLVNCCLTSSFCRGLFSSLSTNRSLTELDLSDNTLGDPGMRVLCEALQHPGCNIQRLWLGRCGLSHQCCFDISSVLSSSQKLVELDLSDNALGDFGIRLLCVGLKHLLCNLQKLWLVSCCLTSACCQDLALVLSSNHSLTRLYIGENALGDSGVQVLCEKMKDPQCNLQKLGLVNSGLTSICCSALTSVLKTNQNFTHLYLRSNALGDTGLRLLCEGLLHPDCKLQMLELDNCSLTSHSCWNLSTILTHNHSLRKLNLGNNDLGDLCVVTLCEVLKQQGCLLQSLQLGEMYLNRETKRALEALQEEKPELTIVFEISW
Experimental: The following assays can be used to determine inhibitory activity of test compounds on the NLRP3 inflammasome using common stimuli such as adenosine triphosphate, nigericin, LeuLeu-OMe or monosodium urate crystals (MSU).
Mouse bone marrow-derived macrophages (BMDM) were derived from bone marrow progenitors isolated from the femurs and tibias of C57BL/6 mice.
BMDM are seeded at 1×10^5/ml. The following day the overnight medium is replaced and cells are stimulated with Ultrapure lipopolysaccharide from Escherichia coli K12 strain (InvivoGen) for 3 h. Medium is removed and replaced with serum free medium (SFM) containing test compound 30 min prior to NLRP3 stimulation. […] ATP can be sourced from Sigma Aldrich, nigericin and MSU from Invivogen and LeuLeu-Ome from Chem-Impex International.
For ELISA and cell death assays cells are seeded in 96 well plates. Supernatants are removed and analysed using ELISA kits according to the manufacturer's instructions (DuoSet® R&D Systems, ReadySetGo!® eBioscience, BD OptEIA™, or Perkin Elmer AlphaLISA®). Cell death is assessed by measurement of LDH release relative to a 100% cell lysis control using the CytoTox96® non-radioactive cytotoxicity assay (Promega).

[3] = commercial compounds (Table 9), read-out: HMDM IC50 vs NLRP3
[4] = commercial compounds (Table 9), read-out: BMDM IC50 vs NLRP3
[5] = inhibition of IL-1β release, class symbols, read-out: Avg. IL-1β IC50 HMDM
[6] = inhibition of IL-1β release, class symbols, read-out: Avg. IL-1β IC50 Murine BMDM
[7] = select compounds of the first aspect (Table 10), read-out: HMDM IC50 vs NLRP3
[8] = select compounds of the first aspect (Table 10), read-out: BMDM IC50 vs NLRP3

Sequence of NLRP3 inflammasome (Homo sapiens, UniProt Q96P20) (Q96P20 whole entry): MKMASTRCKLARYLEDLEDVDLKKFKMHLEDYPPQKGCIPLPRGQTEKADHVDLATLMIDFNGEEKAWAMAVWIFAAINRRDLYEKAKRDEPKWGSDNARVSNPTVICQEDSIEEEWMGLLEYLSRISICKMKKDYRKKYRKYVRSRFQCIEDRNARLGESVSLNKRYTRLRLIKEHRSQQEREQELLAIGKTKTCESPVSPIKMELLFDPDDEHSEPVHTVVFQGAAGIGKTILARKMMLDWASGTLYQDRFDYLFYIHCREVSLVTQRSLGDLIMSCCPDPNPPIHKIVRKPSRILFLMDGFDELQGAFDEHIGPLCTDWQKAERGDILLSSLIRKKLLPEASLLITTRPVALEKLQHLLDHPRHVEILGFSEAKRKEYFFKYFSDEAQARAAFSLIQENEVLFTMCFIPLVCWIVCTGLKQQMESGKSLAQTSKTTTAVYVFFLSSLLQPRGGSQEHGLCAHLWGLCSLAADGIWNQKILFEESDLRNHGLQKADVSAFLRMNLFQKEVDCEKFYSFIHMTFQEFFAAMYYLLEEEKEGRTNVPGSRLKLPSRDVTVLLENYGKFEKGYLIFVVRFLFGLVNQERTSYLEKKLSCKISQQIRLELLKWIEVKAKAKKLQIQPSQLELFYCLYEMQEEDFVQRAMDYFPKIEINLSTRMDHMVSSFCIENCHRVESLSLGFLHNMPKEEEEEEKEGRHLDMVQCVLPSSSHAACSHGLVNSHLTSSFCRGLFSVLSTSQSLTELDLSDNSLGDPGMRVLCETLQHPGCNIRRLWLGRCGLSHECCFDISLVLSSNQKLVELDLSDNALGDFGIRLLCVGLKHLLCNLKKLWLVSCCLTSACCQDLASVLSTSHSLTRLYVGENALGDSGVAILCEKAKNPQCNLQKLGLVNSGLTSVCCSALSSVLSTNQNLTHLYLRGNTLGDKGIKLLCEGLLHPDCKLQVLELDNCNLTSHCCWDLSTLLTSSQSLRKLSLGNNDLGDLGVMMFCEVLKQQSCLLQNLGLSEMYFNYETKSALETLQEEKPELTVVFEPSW

With `CCCNC(=O)NS(=O)(=O)c1ccc(Cl)cc1` [Chlorpropamide, reference compound] the IC50 [1, 3] was > 200 µM and the IC50 [2, 4] was > 200 µM.

For `COc1ccc2c(c1)C(=O)N(CCc1ccc(S(=O)(=O)NC(=O)Nc3c4c(cc5c3CCC5)CCC4)cc1)C(=O)C2(C)C` [N-((1,2,3,5,6,7-hexahydro-s-indacen-4-yl)carbamoyl)-4-(2-(7-methoxy-4,4-dimethyl-1,3-dioxo-3,4-dihydroisoquinolin-2(1H)-yl)ethyl)benzenesulfonamide], the IC50 [1, 5] was < 10 µM and the IC50 [2, 6] was < 1 µM.

For `CC(C)n1cc(S(=O)(=O)NC(=O)Nc2c3c(cc4c2CCC4)CCC3)nn1` [N-((1,2,3,5,6,7-hexahydro-s-indacen-4-yl)carbamoyl)-1-isopropyl-1H-1,2,3-triazole-4-sulfonamide], the IC50 [1, 5] was < 0.1 µM and the IC50 [2, 6] was < 1 µM.

In the case of `O=C(CCCC[C@@H]1SC[C@@H]2NC(=O)N[C@@H]21)NCCCn1cc(CCC(=O)Nc2cccc(S(=O)(=O)NC(=O)Nc3c4c(cc5c3CCC5)CCC4)c2)nn1` [N-(3-(4-(3-((3-(N-((1,2,3,5,6,7-hexahydro-s-indacen-4-yl)carbamoyl)sulfamoyl)phenyl)amino)-3-oxopropyl)-1H-1,2,3-triazol-1-yl)propyl)-5-((3aS,4S,6aR)-2-oxohexahydro-1H-thieno[3,4-d]imidazol-4-yl)pentanamide], the IC50 [1, 5] is reported as < 10 µM and the IC50 [2, 6] is reported as < 10 µM.

With `CC(C)(O)c1coc(S(=O)(=O)NC(=O)Nc2ccc(C(F)(F)F)cc2C(F)(F)F)c1` [N-((2,4-bis(trifluoromethyl)phenyl)carbamoyl)-4-(2-hydroxypropan-2-yl)furan-2-sulfonamide] the IC50 [1, 5] was < 10 µM and the IC50 [2, 6] was < 1 µM.

In the case of `CC(C)c1cc(Cl)cc(C(C)C)c1NC(=O)NS(=O)(=O)c1cc2ccccc2o1` [N-((4-chloro-2,6-diisopropylphenyl)carbamoyl)benzofuran-2-sulfonamide], the IC50 [1, 5] is reported as < 0.1 µM and the IC50 [2, 6] is reported as < 0.1 µM.

`Cc1c2c(c(NC(=O)NS(=O)(=O)c3cc(C(C)(C)O)co3)c3c1CCC3)CCC2` [4-(2-hydroxypropan-2-yl)-N-((8-methyl-1,2,3,5,6,7-hexahydro-s-indacen-4-yl)carbamoyl)furan-2-sulfonamide] was tested, and the IC50 [1, 5] was < 0.1 µM and the IC50 [2, 6] was < 0.1 µM.

With `COc1ccc2c(c1)C(=O)N(CCc1ccc(S(N)(=O)=O)cc1)C(=O)C2(C)C` [Gliquidone precursor, 4-(2-(7-Methoxy-4,4-dimethyl-1,3-dioxo-3,4-dihydroisoquinolin-2(1H)-yl)ethyl)benzenesulfonamide, reference compound] the IC50 [1, 3] was > 200 µM and the IC50 [2, 4] was > 10 µM.

`CC(=O)c1ccc(S(=O)(=O)NC(=O)Nc2c3c(cc4c2CCC4)CCC3)cc1` [drawing 363] gave an IC50 [1, 7] of 0.31 µM and an IC50 [2, 8] of 0.036 µM.

`Cc1cnc(C(=O)NCCc2ccc(S(=O)(=O)NC(=O)NC3CCCCC3)cc2)cn1` [Glipizide, reference compound] was tested, and the IC50 [1, 3] was > 200 µM and the IC50 [2, 4] was > 200 µM.

`COc1ccc2c(c1NC(=O)NS(=O)(=O)c1cc(C(C)(C)O)co1)CCC2` [4-(2-hydroxypropan-2-yl)-N-((5-methoxy-2,3-dihydro-1H-inden-4-yl)carbamoyl)furan-2-sulfonamide] was tested, and the IC50 [1, 5] was < 1 µM and the IC50 [2, 6] was < 1 µM.

`O=C(Nc1ccc(Cl)cc1)NS(=O)(=O)c1ccc2c(c1)CCC2` [Sulofenur, reference compound] was tested, and the IC50 [1, 3] was > 100 µM and the IC50 [2, 4] was > 10 µM.

With `CCC1=C(C)CN(C(=O)NCCc2ccc(S(=O)(=O)NC(=O)Nc3c4c(cc5c3CCC5)CCC4)cc2)C1=O` [drawing 360] the IC50 [1, 7] was 0.65 µM and the IC50 [2, 8] was 0.22 µM.

`COc1ccc2c(c1)C(=O)N(CCc1ccc(S(=O)(=O)NC(=O)Nc3c4c(cc5c3CCC5)CCC4)cc1)C(=O)C2(C)C` [drawing 361] showed an IC50 [1, 7] of 2.3 µM and an IC50 [2, 8] of 0.26 µM.

`COc1ccc(Cl)cc1C(=O)NCCc1ccc(S(=O)(=O)NC(=O)Nc2c3c(cc4c2CCC4)CCC3)cc1` was tested, and the IC50 [1, 5] was < 1 µM and the IC50 [2, 6] was < 1 µM.

For `O=C(Nc1c2c(cc3c1CCC3)CCC2)NS(=O)(=O)c1ccc(Cl)cc1` [drawing 366], the IC50 [1, 7] was 0.3 µM and the IC50 [2, 8] was 0.03 µM.

With `O=C(Nc1c2c(cc3c1CCC3)CCC2)NS(=O)(=O)c1ccc2c(c1)CCC2` [drawing 367] the IC50 [1, 7] was 1.46 µM and the IC50 [2, 8] was 0.05 µM.
